The results in this text go back to ChEMBL document CHEMBL4425185, “Efforts towards the optimization of a bi-aryl class of potent IRAK4 inhibitors” (Bioorg Med Chem Lett, 2016).

Data set [1] can be described thus: Clearance in rat. In kind it is ADME. The conditions noted are these: in vivo.
Data set [2] addresses Voltage-gated inwardly rectifying potassium channel KCNH2 (Homo sapiens, UniProt Q12809). Briefly: Inhibition of MK499 binding to human ERG.
The target of data set [3] is T1, Interleukin-1 receptor-associated kinase 4 (Homo sapiens, UniProt Q9NWZ3).
T1 sequence (Q9NWZ3 whole entry): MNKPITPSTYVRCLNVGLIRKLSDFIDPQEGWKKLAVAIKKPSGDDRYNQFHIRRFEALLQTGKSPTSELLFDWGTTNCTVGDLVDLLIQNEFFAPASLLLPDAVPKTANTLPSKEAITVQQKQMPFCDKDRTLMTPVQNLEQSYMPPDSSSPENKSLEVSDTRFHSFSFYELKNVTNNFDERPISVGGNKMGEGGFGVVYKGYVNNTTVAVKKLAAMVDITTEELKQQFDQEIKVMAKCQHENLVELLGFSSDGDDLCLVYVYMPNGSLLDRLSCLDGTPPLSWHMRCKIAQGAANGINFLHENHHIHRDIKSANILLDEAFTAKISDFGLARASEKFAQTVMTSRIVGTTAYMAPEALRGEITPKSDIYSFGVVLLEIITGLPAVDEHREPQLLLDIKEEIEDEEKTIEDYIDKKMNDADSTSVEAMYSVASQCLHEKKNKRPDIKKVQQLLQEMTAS
Briefly: Inhibition of human recombinant N-terminal GST-tagged full-length IRAK4 expressed in baculovirus infected Sf9 insect cells using 5FAM-RKRQGSVRRRVH-COOH as substrate in presence of ATP by IMAP fluorescence polarization assay.

In data set [4] the target is T1, Interleukin-1 receptor-associated kinase 4. The data set can be described thus: Inhibition of […] IRAK4 in human THP1-XBlue cells assessed as decrease in NF-kappaB level preincubated for 1 hr followed by stimulation with LPS for 4 to 5 hrs measured after 30 mins by spectrophotometric analysis. In kind it is cell-based.
Data set [5] has as its target T2, Interleukin-1 receptor-associated kinase 4 (Homo sapiens) (UniProt Q9NWZ3).
T2 sequence (whole entry): T1 sequence (Q9NWZ3 whole entry)
Briefly: Ratio of IC50 for IRAK4 inhibition in human THP1-XBlue cells to IC50 for inhibition of human IRAK4. In kind it is cell-based.

Data set [6] can be described thus: Clearance in rat at 1.45 mg/kg, iv. In kind it is ADME, organism-based. The note with it: in vivo.
The nature of data set [7]: Clearance in rat at 2 mg/kg, iv. In kind it is ADME, organism-based. The note with it: in vivo.
Data set [8] in a line: Apparent permeability in dog MDCK2-MDR1 cells. In kind it is ADME, cell-based, Canis lupus familiaris. The conditions noted are these: MDCK-MDR1.
In the next data set the test system is MDR1. The data set can be described thus: Efflux ratio of permeability in dog MDCK2-MDR1 cells. In kind it is ADME, cell-based, Canis lupus familiaris. The note with it: MDCK-MDR1.
The test system of data set [9] is Cytochrome P450. The data set can be described thus: Induction of CYP450 (unknown origin). In kind it is ADME. The conditions noted are these: human.
Data set [10] deals with Cytochrome P450. Briefly: Inhibition of CYP450 (unknown origin). In kind it is ADME, protein assay. The note with it: human.
The species named for data set [11] is Homo sapiens. Briefly: Selectivity for human IRAK4 over GST-tagged human MINK1.
The species named for data set [12] is Homo sapiens. Briefly: Selectivity for human IRAK4 over human LRRK2.
The nature of data set [13]: Clearance in rat at 0.15 mg/kg, iv. In kind it is ADME, organism-based. The conditions noted are these: in vivo.

Structures are written as SMILES. pIC50: −log10 of the molar value. A value given as a limit tells only on which side of the number the result lay.

Sequence of Voltage-gated inwardly rectifying potassium channel KCNH2 (Q12809 whole entry): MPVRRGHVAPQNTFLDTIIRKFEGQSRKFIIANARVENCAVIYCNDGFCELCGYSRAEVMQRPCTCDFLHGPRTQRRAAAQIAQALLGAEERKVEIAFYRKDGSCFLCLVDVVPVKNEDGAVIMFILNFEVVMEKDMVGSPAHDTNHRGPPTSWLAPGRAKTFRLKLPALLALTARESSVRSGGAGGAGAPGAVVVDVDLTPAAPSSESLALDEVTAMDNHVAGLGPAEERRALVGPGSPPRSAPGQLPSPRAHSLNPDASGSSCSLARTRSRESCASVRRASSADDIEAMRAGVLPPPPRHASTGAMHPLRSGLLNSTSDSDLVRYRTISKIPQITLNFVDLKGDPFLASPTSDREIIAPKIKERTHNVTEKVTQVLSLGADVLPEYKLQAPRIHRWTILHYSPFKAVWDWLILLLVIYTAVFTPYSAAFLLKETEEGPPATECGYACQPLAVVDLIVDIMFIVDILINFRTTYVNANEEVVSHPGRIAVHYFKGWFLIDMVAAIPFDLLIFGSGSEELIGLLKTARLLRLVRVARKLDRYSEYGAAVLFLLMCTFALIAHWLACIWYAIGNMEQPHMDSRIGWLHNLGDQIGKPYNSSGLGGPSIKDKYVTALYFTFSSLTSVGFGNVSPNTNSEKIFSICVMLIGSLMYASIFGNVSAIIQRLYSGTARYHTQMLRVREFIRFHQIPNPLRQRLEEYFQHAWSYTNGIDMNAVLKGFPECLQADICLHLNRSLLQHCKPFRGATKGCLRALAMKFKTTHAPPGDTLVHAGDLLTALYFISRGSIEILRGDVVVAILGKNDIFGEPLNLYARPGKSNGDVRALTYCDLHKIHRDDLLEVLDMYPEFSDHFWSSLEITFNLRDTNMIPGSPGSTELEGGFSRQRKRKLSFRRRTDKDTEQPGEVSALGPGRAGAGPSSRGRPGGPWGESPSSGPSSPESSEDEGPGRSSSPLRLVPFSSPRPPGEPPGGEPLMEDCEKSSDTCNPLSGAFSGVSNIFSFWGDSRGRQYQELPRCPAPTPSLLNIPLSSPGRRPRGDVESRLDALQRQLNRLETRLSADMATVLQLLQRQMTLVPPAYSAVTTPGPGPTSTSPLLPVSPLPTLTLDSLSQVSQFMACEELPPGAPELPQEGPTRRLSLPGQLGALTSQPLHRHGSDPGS

For `CN1CCCC(CNC(=O)c2nn(C)cc2NC(=O)c2cccc(-c3ccnc(NCC4CC4)c3)n2)C1` (stereo not given), the clearance (commonly the volume of plasma or blood freed of the substance per unit of time) in data set [1] came out at 21 mL/min/kg. Moreover, the pIC50 (in general, the negative decadic logarithm of the IC50, by convention in mol/L) in data set [2] is 4.92.

With `CC(C)CNC(=O)c1nn(C)cc1NC(=O)c1cccc(-c2ccnc(NCC3CC3)c2)n1`, the pIC50 in data set [3] is less than 5.30.

Turning to `Cn1cc(NC(=O)c2cccc(-c3ccnc(NCC4CC4)c3)n2)c(C(=O)N2CC(CN)C2)n1`, the pIC50 in data set [4] was 6.32; in data set [2], 4.40. This compound also registered a clearance in data set [1] of 6 mL/min/kg. In addition, the Ratio IC50 in data set [5] was less than 3.

As to `Cn1cc(NC(=O)c2cccc(-c3ccccc3)n2)c(C(N)=O)n1`, the pIC50 in data set [3] is 5.44.

With `Cn1cc(NC(=O)c2cccc(-c3ccnc(NCC4CC4)c3)c2)c(C(N)=O)n1`, the pIC50 in [3] is 6.73; in data set [4], 6.37; in data set [2], 5.21. Further, the clearance was 25 mL/min/kg in [1] and 32 mL/min/kg in data set [6]. Moreover, the Ratio IC50 in data set [5] was less than 3.

Take `Cn1cc(NC(=O)c2cccc(-c3ccnc(NCC4CC4)c3)n2)c(C(N)=O)n1`: the pIC50 is 6.77 in data set [4] and 5.54 in data set [2]. Moreover, the clearance in [1] was 17 mL/min/kg; in [7], 33 mL/min/kg. Further, the Papp – broadly, a coefficient for how fast a substance crosses the barrier – in data set [8] amounted to 18 ×10⁻⁶ cm/s. Also, the efflux ratio (in general, the permeability from basolateral to apical divided by that in the opposite direction, in the common usage) in the data set with MDR1 turned out to be 0.3. Also, the Activity result in the data set on Cytochrome P450 [9] is given as “Not Active”. The “inhibition (INH)” value with Cytochrome P450 [10] is on record as “Not Active”. The Ratio IC50 in data set [5] was less than 3. In addition, the Selectivity ratio in the data set listed under Homo sapiens [11] and in the data set listed under Homo sapiens [12] was less than 10 throughout.

For `Cn1cc(NC(=O)c2cccc(-c3ccnc(NCC4CC4)c3)n2)c(C(=O)NCc2ccccc2)n1`, in [3], the pIC50 was less than 5.30.

With `CN(C)[C@H]1CN(C(=O)c2nn(C)cc2NC(=O)c2cccc(-c3ccnc(NCC4CC4)c3)n2)C[C@@H]1O`, the pIC50 was 6.27 in [4] and less than 4.22 in data set [2]. This compound also displayed a clearance in data set [1] of 37 mL/min/kg. In addition, the Papp in [8] was 11 ×10⁻⁶ cm/s. The Ratio IC50 in [5] was less than 3.

Regarding `Cn1cc(NC(=O)c2cccc(-c3ccnc(NCC4CC4)c3)n2)c(C(=O)NC2CCCC2)n1`, in [3], the pIC50 was less than 5.30.

For `Cn1cc(NC(=O)c2cccc(-c3cnccc3Cl)n2)c(C(N)=O)n1`, the pIC50 in data set [3] is 6.17.

In the case of `Cn1cc(NC(=O)c2cncc(-c3ccnc(NCC4CC4)c3)c2)c(C(N)=O)n1`, the clearance in [1] stood at 53 mL/min/kg; in data set [6], 31 mL/min/kg. Besides, the pIC50 in data set [2] is 5.28.

Consider `Cn1cc(NC(=O)c2cccc(-c3ccc(C4CC4)nc3)n2)c(C(N)=O)n1`, for which the pIC50 in [3] is 6.92; in [4], 6.51; in data set [2] it was less than 4.22. The compound also yielded a clearance in data set [1] of 30 mL/min/kg. In [5], the Ratio IC50 is less than 3.

The compound `Cn1cc(NC(=O)c2cccc(-c3cccnc3)n2)c(C(N)=O)n1` returned a clearance in data set [1] of 54 mL/min/kg.

For the compound `Cn1cc(NC(=O)c2cccc(-c3cncc(Cl)c3)n2)c(C(N)=O)n1`, the pIC50 in data set [3] was 6.97; in data set [4], 6.69. Moreover, in [5], the Ratio IC50 was less than 3.

With `Cn1cc(NC(=O)c2cccc(-c3ccnc(NCC4CC4)c3)n2)c(C(=O)NCc2ccncc2)n1`, in data set [3], the pIC50 is less than 5.30.

For `Cn1cc(NC(=O)c2cnn3ccc(N4CCNCC4)nc23)c(C(N)=O)n1`, the pIC50 was 7.42 in data set [3], 6.82 in data set [4] and less than 4.22 in data set [2]. For the same compound, the clearance was 39 mL/min/kg in [13] and 3 mL/min/kg in data set [1]. In addition, the Papp in [8] was determined as 1.6 ×10⁻⁶ cm/s. In addition, the efflux ratio with MDR1 came out at 1. Besides, the Activity entry in the data set with Cytochrome P450 [9] is “Not Active”. Also, the “inhibition (INH)” value in the data set with Cytochrome P450 [10] is reported as “Not Active”. Moreover, the Ratio IC50 in data set [5] is less than 3. For the same compound, the Selectivity ratio in the data set listed under Homo sapiens [11] and in the data set filed under Homo sapiens [12] was less than 10 each time.

Take `Cn1cc(NC(=O)c2cccc(-c3ccnc(NCC4CC4)c3)n2)c(C(=O)NCc2ncc[nH]2)n1`: in data set [3], the pIC50 was 5.79.

For the compound `Cn1cc(NC(=O)c2ccnc(-c3ccnc(NCC4CC4)c3)n2)c(C(N)=O)n1`, the clearance in data set [1] stood at 43 mL/min/kg. Further, the pIC50 in data set [2] is 5.72.

With `Cn1cc(NC(=O)c2cc(-c3ccnc(NCC4CC4)c3)ccn2)c(C(N)=O)n1`, the pIC50 in [3] is less than 5.30.

Turning to `Cn1cc(NC(=O)c2cccc(-c3ccsc3)n2)c(C(N)=O)n1`, the pIC50 in [3] was 6.40.

For the compound `Cn1cc(-c2cccc(C(=O)Nc3cn(C)nc3C(N)=O)n2)cn1`, the pIC50 in [3] is 7.44; in data set [4], 6.86; in data set [2], less than 4.22. In addition, the clearance in [13] and in [1] was 53 mL/min/kg in each case. For the same compound, the Papp in data set [8] was 29 ×10⁻⁶ cm/s. In the data set on MDR1, the efflux ratio came to 0.5. Further, in the data set on Cytochrome P450 [9], the Activity result is listed as “Not Active”. Further, the “inhibition (INH)” value in the data set on Cytochrome P450 [10] is listed as “Not Active”. In addition, the Ratio IC50 in [5] is less than 3. The Selectivity ratio in the data set listed under Homo sapiens [11] and in the data set filed under Homo sapiens [12] was less than 10 each time.

`Cn1cc(NC(=O)c2cccc(-c3ccnc(NCC4CC4)c3)n2)c(C(=O)N2CCC(O)C2)n1` (stereo not given): the pIC50 in data set [3] was less than 5.30.

With `Cn1cc(NC(=O)c2cccc(-c3ccnc(NCC(F)(F)F)c3)n2)c(C(N)=O)n1`, the pIC50 in data set [4] was 6.53. In data set [5], the Ratio IC50 was less than 3.

On to `Cn1cc(NC(=O)c2cccc(-c3ccnc(N)c3)n2)c(C(N)=O)n1`, for which the pIC50 was 6.59 in [4] and 4.60 in [2]. The clearance in data set [1] was 24 mL/min/kg; in data set [7], 69 mL/min/kg. Also, in [8], the Papp was determined as 23 ×10⁻⁶ cm/s. For the same compound, the Ratio IC50 in data set [5] is less than 3.

On to `CN(C)CCCNC(=O)c1nn(C)cc1NC(=O)c1cccc(-c2ccnc(NCC3CC3)c2)n1`, for which, in data set [3], the pIC50 was 6.27.
